Conditions: Liquid, Vibrating tube method

CC(C)CCCCCCCOC(=O)c1ccccc1C(=O)OCCCCCCCC(C)C
Conditions | mass density [kg/m3]
343.15 K, 100 kPa | 931.2
343.15 K, 220 kPa | 931.3
343.15 K, 430 kPa | 931.5
343.15 K, 610 kPa | 931.6
343.15 K, 810 kPa | 931.8
343.15 K, 1000 kPa | 931.9
343.15 K, 2000 kPa | 932.6
343.15 K, 3000 kPa | 933.3
343.15 K, 3980 kPa | 934
343.15 K, 5010 kPa | 934.6
343.15 K, 5980 kPa | 935.3
343.15 K, 7000 kPa | 936
343.15 K, 7990 kPa | 936.6
343.15 K, 9020 kPa | 937.3
343.15 K, 9980 kPa | 937.9
343.15 K, 15010 kPa | 941.2
343.15 K, 19990 kPa | 944.3
343.15 K, 25010 kPa | 947.4
343.15 K, 29980 kPa | 950.4
343.15 K, 35030 kPa | 953.3
343.15 K, 40030 kPa | 956.1
343.15 K, 45010 kPa | 958.7
343.15 K, 50050 kPa | 961.4
343.15 K, 55000 kPa | 964
343.15 K, 60000 kPa | 966.5
343.15 K, 65020 kPa | 968.9
353.15 K, 100 kPa | 924.2
353.15 K, 200 kPa | 924.3
353.15 K, 410 kPa | 924.5
353.15 K, 630 kPa | 924.6
353.15 K, 800 kPa | 924.8
353.15 K, 1010 kPa | 924.9
353.15 K, 2000 kPa | 925.6
353.15 K, 3000 kPa | 926.3
353.15 K, 3980 kPa | 927
353.15 K, 4990 kPa | 927.7
353.15 K, 6000 kPa | 928.4
353.15 K, 7000 kPa | 929.1
353.15 K, 8010 kPa | 929.8
353.15 K, 9000 kPa | 930.5
353.15 K, 10010 kPa | 931.2
353.15 K, 15040 kPa | 934.6
353.15 K, 20000 kPa | 937.9
353.15 K, 24970 kPa | 941
353.15 K, 29980 kPa | 944.1
353.15 K, 35010 kPa | 947.1
353.15 K, 40000 kPa | 950
353.15 K, 45000 kPa | 952.7
353.15 K, 49990 kPa | 955.5
353.15 K, 55000 kPa | 958.1
353.15 K, 60010 kPa | 960.7
353.15 K, 65020 kPa | 963.2
363.15 K, 100 kPa | 917.2
363.15 K, 200 kPa | 917.3
363.15 K, 420 kPa | 917.4
363.15 K, 600 kPa | 917.6
363.15 K, 800 kPa | 917.7
363.15 K, 990 kPa | 917.9
363.15 K, 2000 kPa | 918.6
363.15 K, 2980 kPa | 919.4
363.15 K, 3960 kPa | 920.1
363.15 K, 4970 kPa | 920.9
363.15 K, 5990 kPa | 921.6
363.15 K, 7020 kPa | 922.3
363.15 K, 7980 kPa | 923
363.15 K, 9030 kPa | 923.8
363.15 K, 10000 kPa | 924.5
363.15 K, 15000 kPa | 928
363.15 K, 19990 kPa | 931.4
363.15 K, 25010 kPa | 934.7
363.15 K, 30020 kPa | 937.9
363.15 K, 34980 kPa | 940.9
363.15 K, 39990 kPa | 943.9
363.15 K, 44980 kPa | 946.8
363.15 K, 49990 kPa | 949.6
363.15 K, 55000 kPa | 952.3
363.15 K, 60040 kPa | 955
363.15 K, 64990 kPa | 957.6

Source: the NIST ThermoML archive (doi:10.1021/je1001413)
